Entries after “also recorded” stand apart in the source; their conditions may differ. Marks after values point to notes of the source that are not given here.
How the values were obtained:
ET receptor = experiment: Endothelin-1 (ET-1) challenge before and after Compound 1 in conscious pigs with heart failure; type: in vivo, pig
Procedure: Hemodynamic experiments were performed after 2 cycles of tachycardic pacing in the presence of myocardial ischemia injury, after the animal had achieved a stable state of heart failure. During the experiments, the pigs were conscious and quietly restrained in a sling. The test compound is dissolved in saturated NaHCO3 (10% by Vol) and 0.9% saline (90% by Vol) at a concentration of 2 mg/ml, was studied in four conscious pigs with heart failure. A dose of 0.5 mg/kg was injected intravenously over a period of 2 minutes, and hemodynamics were continuously recorded before and 90 minutes following injection of the test compound in all 4 pigs. In two of these pigs, recording continued until 3 hours following injection of the test compound. The vehicle was tested on separate days. The effects of 0.1 to 0.5 μg/kg cumulative bolus doses in 0.1 μg/kg steps of endothelin-1 (Peptide Institute, Inc., Osaka, Japan) were also examined on separate days before and 90 minutes after injection of the test compound in three pigs during development of heart failure to characterize the extent of endothelin block by the test compound. ET-1 was dissolved in 0.1 N NaHCO3 ([…]) and 0.9% saline (95% by Vol) at a concentration of 20 μg/ml.
Hemodynamic experiments were performed after 2 cycles of tachycardic pacing in the presence of myocardial ischemia injury, after the animal had achieved a stable state of heart failure. During the experiments, the pigs were conscious and quietly restrained in a sling. Compound 1, dissolved in saturated NaHCO3 (10% by Vol) and 0.9% saline (90% by Vol) at a concentration of 2 mg/ml, was studied in four conscious pigs with heart failure. A dose of 0.5 mg/kg was injected intravenously over a period of 2 minutes, and hemodynamics were continuously recorded before and 90 minutes following injection of Compound 1 in all 4 pigs. In two of these pigs, recording continued until 3 hour following injection of Compound 1. The vehicle was tested on separate days. The effects of 0.1 to 0.5 μg/kg cumulative bolus doses in 0.1 μg/kg steps of endothelin-1 (Peptide Institute, Inc., Osaka, Japan) were also examined on separate days before and 90 minutes after injection of Compound 1 in three pigs during development of heart failure to characterize the extent of ET block by Compound 1. ET-1was dissolved in 0.1 N NaHCO3 ([…]) and 0.9% saline (95% by Vol) at a concentration of 20 μg/ml. For comparative purpose, the effects of intravenous injection of Compound 2 (enalaprilat), at doses of 1 mg/kg and 4 mg/kg, were studied on different days in three of the pigs that were used to study […] and in one additional pig. Compound 2 was dissolved in 0.9% saline.

[1] = system: conscious pigs with heart failure; experiment: Hemodynamic study in conscious pigs with heart failure (serial myocardial infarctions plus intermittent tachycardic pacing); type: in vivo, pig; settings: for LV End-Diastolic Diameter, change from baseline / LV End-Systolic Diameter, change from baseline / LV Fractional Shortening, change from baseline / Vcf, change from baseline: n = 3; for Cardiac Index, change from baseline / Heart Rate, change from baseline / LV dP/dt, change from baseline / Left Atrial Pressure, change from baseline / Mean Arterial Pressure, change from baseline / Total Peripheral Resistance, change from baseline: n = 4
Procedure: Five farm pigs of either of sex and weighing 34.5±2.5 kg were sedated with ketamine hydrochloride (25 mg/kg, i.m.) and xylazine (6 mg/kg, i.m.). After tracheal intubation, general anesthesia was maintained with isoflurane (1.5-2.0 vol % in oxygen). Using sterile surgical technique, a left thoracotomy was performed at the fifth intercostal space. Catheters made of Tygon tubing (Norton Performance Plastics Co., Akron, Ohio) were implanted in the descending aorta, left and right atria for measurement of pressures. A solid-state miniature pressure gauge (Konigsberg Instruments Inc., Pasadena, Calif.) was implanted in the left ventricular (LV) chamber to obtain LV pressure and the rate of change of LV pressure (LV dP/dt). A flow probe (Transonic System Inc., Ithaca, N.Y.) was placed around the main pulmonary artery for measurement of blood flow. One pair of piezoelectric ultrasonic dimension crystals were implanted on opposing anterior and posterior endocardial regions of the LV to measure the short-axis internal diameter. Proper alignment of the endocardial crystals was achieved during surgical implantation by positioning the crystals so as to obtain a signal with the greatest amplitude and shortest transit time. A pacing lead (model 5069, Medtronic Inc., Minneapolis, Minn.) was attached to the right ventricular free wall, and stainless steel pacing leads were attached to the left atrial appendage. The left circumflex coronary artery was isolated and two hydraulic occluders, made of Tygon tubing, were implanted proximally and distally to the first obtuse marginal branch. The wires and catheters were externalized between the scapulae, the incision was closed in layers, and air was evacuated from the chest cavity.
Hemodynamic recordings were made using a data tape recorder (RD-130TE, TEAC, Montebello, Calif.) and a multiple-channel oscillograph (MT95K2, Astro-Med, West Warwick, R.I.). Aortic and left atrial pressures were measured using strain gauge manometers (Statham Instruments, Oxnard, Calif.), which were calibrated in vitro using a mercury manometer, connected to the fluid-filled catheters. The solid-state LV pressure gauge was cross-calibrated with aortic and left atrial pressure measurements. LV dP/dt was obtained by electronically differentiating the LV pressure signal. Blood flow was measured using a volume flow meter (T208, Transonic System Inc., Ithaca, N.Y.). Mean arterial pressure, left atrial pressures, and pulmonary blood flow (cardiac output) were measured using an amplifier filter. Stroke volume was calculated as the quotient of cardiac output and heart rate. Cardiac output was normalized by body weight to yield cardiac index. LV dimension was measured with an ultrasonic transit-time dimension gauge (Model 203, Triton Technology Inc., San Diego, Calif.). Total peripheral resistance was calculated as the quotient of mean arterial pressure and cardiac output. LV short-axis end-diastolic dimension (EDD) was measured at the beginning of the upstroke of the LV dP/dt signal. LV end-systolic dimension (ESD) was measured at the time of maximum negative dP/dt. The percent shortening of LV internal diameter was calculated as (EDD-ESD)/EDD*100. LV mean velocity of circumferential fiber shortening (Vcf) was calculated from the dimension measurements using the following formula:(EDD-ESD)/EDD/Ejection time (sec^−1). Ejection time was measured as the interval between maximum and minimum LV dP/dt. A cardiotachometer triggered by the LV pressure pulse provided instantaneous and continuous records of heart rate.
Experiments were initiated 10-14 days after surgery, when the pigs were fully recovered from surgery. During the post-operative period, the pigs were introduced to a sling for training. Heart failure was produced by progressive myocardial ischemia induced by two coronary artery occlusions followed by intermittent ventricular pacing.

[2] = 0.5 mg/kg i.v., 60 minutes after administration
[3] = Compound 1 0.5 mg/kg i.v., 15 min
[4] = Compound 1 0.5 mg/kg i.v., 60 min
[5] = ET-1 cumulative i.v. bolus 0.1 to 0.5 μg/kg, without Compound 1

CCCCc1ccc2c(n1)[C@@H](c1ccc(OC)cc1CC(C)C(=O)O)[C@H](C(=O)O)[C@H]2c1ccc2c(c1)OCO2 (relative stereo) [Compound 1, (+)-(5S*, 6R*, 7R*)-2-butyl-6-carboxy-7-[2-(2-carboxypropyl)-4-methoxyphenyl]-5-(3,4-methylenedioxyphenyl)cyclopenteno[1,2-b]pyridine]
hemodynamic responses to ET-1 after administration of the antagonist (ET receptor; Compound 1 0.5 mg/kg i.v., ET-1 cumulative i.v. bolus, total dose 0.5 μg/kg): markedly attenuated | Vcf, increase ([1]; 0.5 mg/kg i.v.): 12±2% | effect on LV dP/dt (in words) ([1]; 0.5 mg/kg i.v.): not affected | effect on LV end-diastolic diameter (in words) ([1]; 0.5 mg/kg i.v.): not affected | effect on LV fraction shortening (in words) ([1]; 0.5 mg/kg i.v.): not affected | effect on LV systolic diameter (in words) ([1]; 0.5 mg/kg i.v.): not affected | effect on elevated vascular resistance of heart failure (in words) ([1]; 0.5 mg/kg i.v.): complete restoration of the elevated vascular resistance of heart failure back to pre-heart failure control values; also recorded: reduced the elevated vascular resistance | effect on myocardial contractility (in words) ([1]; 0.5 mg/kg i.v.): did not affect myocardial contractility | heart rate, increase (in words) ([1]; 0.5 mg/kg i.v.): not statistically significant | left atrial pressure, decrease (in words) ([1]; 0.5 mg/kg i.v.): not statistically significant | cardiac index, increase [1, 2]: 17±4% | mean arterial pressure, decrease [1, 2]: 10±2% | total peripheral resistance, decrease [1, 2]: 22±3% | reduction in total peripheral resistance compared with Compound 2 (1 mg/kg or 4 mg/kg i.v.) ([1]; Compound 1 0.5 mg/kg i.v.): greater than that induced by either dose of Compound 2 | LV End-Diastolic Diameter, change from baseline [1, 3]: +0.1 ± 0.2 mm | LV End-Systolic Diameter, change from baseline [1, 3]: −0.3 ± 0.3 mm | LV Fractional Shortening, change from baseline [1, 3]: +0.6 ± 0.2% | Vcf, change from baseline [1, 3]: 0.05 ± 0.01* sec^−1 | Cardiac Index, change from baseline [1, 3]: +14 ± 2 ml/min/kg | Heart Rate, change from baseline [1, 3]: +5 ± 5 beat/min | LV dP/dt, change from baseline [1, 3]: +25 ± 40 mmHg/sec | Left Atrial Pressure, change from baseline [1, 3]: −4 ± 2 mmHg | Mean Arterial Pressure, change from baseline [1, 3]: −10 ± 1 mmHg | Total Peripheral Resistance, change from baseline [1, 3]: −0.25 ± 0.03 mmHg/ml/min/kg | LV End-Diastolic Diameter, change from baseline [1, 4]: +0.2 ± 0.3 mm | LV End-Systolic Diameter, change from baseline [1, 4]: −0.2 ± 0.3 mm | LV Fractional Shortening, change from baseline [1, 4]: +0.7 ± 0.2% | Vcf, change from baseline [1, 4]: +0.07 ± 0.02* sec^−1 | Cardiac Index, change from baseline [1, 4]: +13 ± 2 ml/min/kg | Heart Rate, change from baseline [1, 4]: +7 ± 5 beat/min | LV dP/dt, change from baseline [1, 4]: 56 ± 65 mmHg/sec | Left Atrial Pressure, change from baseline [1, 4]: −2 ± 2 mmHg | Mean Arterial Pressure, change from baseline [1, 4]: −8 ± 1 mmHg | Total Peripheral Resistance, change from baseline [1, 4]: −0.24 ± 0.05 mmHg/ml/min/kg

CC[C@H](C)[C@H](NC(=O)[C@H](CC(=O)O)NC(=O)[C@H](CC(C)C)NC(=O)[C@H](Cc1c[nH]cn1)NC(=O)[C@@H]1CSSC[C@H](N)C(=O)N[C@@H](CO)C(=O)N[C@H]2CSSC[C@H](NC(=O)[C@H](CCC(=O)O)NC(=O)[C@H](CCCCN)NC(=O)[C@H](CC(=O)O)NC(=O)[C@H](CCSC)NC(=O)[C@H](CC(C)C)NC(=O)[C@H](CO)NC(=O)[C@H](CO)NC2=O)C(=O)N[C@@H](C(C)C)C(=O)N[C@@H](Cc2ccc(O)cc2)C(=O)N[C@@H](Cc2ccccc2)C(=O)N1)C(=O)N[C@H](C(=O)N[C@@H](Cc1c[nH]c2ccccc12)C(=O)O)[C@@H](C)CC [ET-1, endothelin-1]
effect of ET-1 on heart rate (ET receptor; [5]): decreased, but not dose-dependently | effect of ET-1 on mean arterial pressure (ET receptor; [5]): significant dose-dependent increases | effect of ET-1 on mean left atrial pressure (ET receptor; [5]): significant dose-dependent increases | effect of ET-1 on total peripheral resistance (ET receptor; [5]): significant dose-dependent increases

C[C@H](N[C@@H](CCc1ccccc1)C(=O)O)C(=O)N1CCC[C@H]1C(=O)O [Compound 2, enalaprilat, reference compound]
effect on total peripheral resistance (in words) ([1]; 1 mg/kg or 4 mg/kg i.v., throughout 90-minute observation period, not dose-dependent): significantly reduce the total peripheral resistance

Reference: US6380195B1, “Method of treating heart failure with endothelin antagonists” (Banyu Pharmaceutical Co., Ltd., priority 1996, dated 2002)
